Earlier results, collected in patent US20250228797A1, “SYNERGIC AND STABLE PHARMACEUTICAL COMPOSITION OF AN NSAID AND AN OPIOID ANALGESIC FOR PAIN AND INFLAMMATION” (LABORATORIOS SILANES, S.A. DE C.V., priority 2024, published 2025).

Assays:
[1] = tested on: moderate to severe post-operatory pain; conditions: intravenous or intramuscular
[2] = in vivo

In the case of `COc1cccc([C@@]2(O)CCCC[C@@H]2CN(C)C)c1` [tramadol, (1R,2R)-2-[(dimethylamino)methyl]-1-(3-methoxyphenyl)cyclohexan-1-ol], the “Analgesic potency relative to nalbuphine” value [1] is listed as “one-fifth”, the “Analgesic potency relative to pethidine (meperidine)” value [1] is listed as “equivalent” and the “Incidence of serious adverse reactions” value [2] is listed as “less than 1%”.
